Laboratory results published in patent publication US20150148256A1, “BIOLUMINESCENCE IMAGING-BASED SCREENING ASSAY AND INHIBITORS OF ABCG2” (THE JOHNS HOPKINS UNIVERSITY, priority 2008, published 2015).
Where a name gives a salt, the structure may show the parent alone. Read-outs that look alike come from different tables or passages of the source.

Target: T1, ABCG2 (Homo sapiens, UniProt Q9UNQ0)
T1 sequence (Q9UNQ0 1-655): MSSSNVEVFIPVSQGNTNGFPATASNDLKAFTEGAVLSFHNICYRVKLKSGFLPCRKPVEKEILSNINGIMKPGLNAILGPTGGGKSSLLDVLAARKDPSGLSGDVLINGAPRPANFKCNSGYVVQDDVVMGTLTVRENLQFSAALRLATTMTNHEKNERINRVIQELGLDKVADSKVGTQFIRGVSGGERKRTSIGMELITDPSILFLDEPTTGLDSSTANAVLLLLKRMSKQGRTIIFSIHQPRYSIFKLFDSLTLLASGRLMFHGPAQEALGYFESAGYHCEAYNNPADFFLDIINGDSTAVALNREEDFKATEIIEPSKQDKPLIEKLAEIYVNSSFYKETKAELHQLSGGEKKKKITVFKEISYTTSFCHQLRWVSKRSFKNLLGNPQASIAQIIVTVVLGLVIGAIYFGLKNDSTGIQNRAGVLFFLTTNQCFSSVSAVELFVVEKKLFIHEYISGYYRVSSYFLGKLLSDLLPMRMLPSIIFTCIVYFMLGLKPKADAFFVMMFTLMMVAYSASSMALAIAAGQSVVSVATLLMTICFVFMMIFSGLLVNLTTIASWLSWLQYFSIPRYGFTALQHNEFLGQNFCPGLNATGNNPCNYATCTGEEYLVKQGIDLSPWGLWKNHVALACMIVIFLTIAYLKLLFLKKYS
Experiment: Bioluminescence imaging (BLI) assay in HEK293/ABCG2/fLuc cells
Description: HEK293/ABCG2/fLuc cells were plated into 96-well plates at a density of 4×10^4 cells/100 μL per well and were allowed to attach overnight. The following day, 10 μL of each compound or the control solvent was transferred from a compound library in a 96-well, high-throughput format into the wells using a multichannel pipette. […] Images were taken every 5 minutes for ˜1 h. Light output from each well was quantified at the 40 min time point after initiation of imaging, and the signal-to-background (S/B) ratio of the light output from each compound divided by that from the control well was calculated. This S/B ratio serves as an indicator of the potency of ABCG2 inhibition, the mechanism by which BLI signal is enhanced.
Images were taken every 5 min for ˜1 h, and light output from each well at the 40 min time point was chosen for quantification. The SB ratio of the light output from each compound divided by that from the control well was calculated. This ratio was used as an indicator of the potency of ABCG2 inhibition, the mechanism by which BLI signal is enhanced.
The BLI signal-enhancing effect of selected ABCG2 inhibitors was evaluated within the range of 0.001 μM-100 μM, with HEK293/ABCG2/fLuc cells and 50 μg/mL D-luciferin. The data obtained at 40 min after imaging commencement were chosen arbitrarily to be plotted (FIG. 3).

[1] = Table 2, HEK293/ABCG2/fLuc cells, compound approximately 17 μM, ~50 μg/mL D-luciferin, 40 min time point

SMILES: CS(=O)(=O)O.O=C(O[C@H]1C[C@H]2CC3C[C@@H](C1)N2CC3=O)c1c[nH]c2ccccc12 [dolasetron mesylate]
- Fold (BLI enhancement, S/B ratio over control): 3.0 fold

SMILES: O=c1[nH]c2ccccc2n1CCCN1CCC(n2c(=O)[nH]c3cc(Cl)ccc32)CC1 [domperidone]
- Fold (BLI enhancement, S/B ratio over control) (human, 40 min, 17 μM): 2.5 fold

SMILES: COc1cc2nc(N3CCN(C(=O)C4COc5ccccc5O4)CC3)nc(N)c2cc1OC (stereo not drawn) [doxazosin mesylate]
- IC50: 8 µM
- BLI signal enhancement (human, 40 min, 17 μM): 16 fold

SMILES: Clc1ccc(COC(Cn2ccnc2)c2ccc(Cl)cc2Cl)cc1 (stereo not drawn) [econazole]
- Fold (BLI enhancement, S/B ratio over control) (human, 40 min, 17 μM): 2.5 fold

SMILES: Cc1c2ccncc2c(C)c2c1[nH]c1ccccc12 [ellipticine]
- Fold (BLI enhancement, S/B ratio over control) [1]: 2.5 fold

SMILES: Cc1cc(O)c2c(c1)C(=O)c1cc(O)cc(O)c1C2=O [emodin]
- Fold (BLI enhancement), previously unknown compounds (human, 40 min, 17 μM): 6.4 fold
- Fold (BLI enhancement, S/B ratio over control) (human, 40 min, 17 μM): 6.4 fold

SMILES: C[C@]12CC[C@@H]3c4ccc(O)cc4CC[C@H]3[C@@H]1CC[C@@H]2OC(=O)CCC1CCCC1 [estradiol cypionate]
- Fold (BLI enhancement, S/B ratio over control) [1]: 3.6 fold

SMILES: CCC(=O)O[C@H]1CC[C@H]2[C@@H]3CCc4cc(O)ccc4[C@H]3CC[C@]12C [estradiol propionate]
- Fold (BLI enhancement, S/B ratio over control) (human, 40 min, 17 μM): 2.6 fold

SMILES: C[C@]12CC[C@@H]3c4ccc(O)cc4CC[C@H]3[C@@H]1CC[C@@H]2O [estradiol]
- fold (BLI enhancement), additional previously known ABCG2 inhibitors (human, 40 min, 17 μM): 3.6 fold

SMILES: CC(=O)Oc1ccc2c(c1)CCC1C2CC[C@]2(C)C(=O)CCC12 (stereo partly drawn) [estrone acetate]
- Fold (BLI enhancement, S/B ratio over control) (human, 40 min, 17 μM): 4.1 fold

SMILES: C[C@]12CC[C@@H]3c4ccc(O)cc4CC[C@H]3[C@@H]1CCC2=O [estrone]
- fold (BLI enhancement), additional previously known ABCG2 inhibitors (human, 40 min, 17 μM): 4.1 fold

SMILES: CCOc1ccc(Cc2nccc3cc(OCC)c(OCC)cc23)cc1OCC [ethaverine hydrochloride]
- Fold (BLI enhancement, S/B ratio over control) (human, 40 min, 17 μM): 2.6 fold

SMILES: C#C[C@]1(O)CC[C@H]2[C@@H]3CCc4cc(O)ccc4[C@H]3CC[C@@]21C [ethinyl estradiol]
- Fold (BLI enhancement, S/B ratio over control) (human, 40 min, 17 μM): 2.4 fold

SMILES: COc1ccc(-c2cc(=O)c3c(O)c(OC)c(OC)cc3o2)cc1O [eupatorin]
- Fold (BLI enhancement), previously unknown compounds (human, 40 min, 17 μM): 5.6 fold
- Fold (BLI enhancement, S/B ratio over control) (human, 40 min, 17 μM): 5.6 fold

SMILES: C=C1C[C@@H]2[C@H](CC[C@]3(C)C(=O)CC[C@@H]23)[C@@]2(C)C=CC(=O)C=C12 [exemestane]
- Fold (BLI enhancement, S/B ratio over control) (human, 40 min, 17 μM): 2.1 fold

SMILES: CCOC(=O)C1=C(C)NC(C)=C(C(=O)OC)C1c1cccc(Cl)c1Cl (stereo not drawn) [felodipine]
- Fold (BLI enhancement, S/B ratio over control) (human, 40 min, 17 μM): 3.0 fold

SMILES: CC(C)OC(=O)C(C)(C)Oc1ccc(C(=O)c2ccc(Cl)cc2)cc1 [fenofibrate]
- Fold (BLI enhancement, S/B ratio over control) (human, 40 min, 17 μM): 2.3 fold

SMILES: O=c1[nH]c(=O)n([C@H]2C[C@H](O)[C@@H](CO)O2)cc1F [floxuridine]
- Fold (BLI enhancement, S/B ratio over control) (human, 40 min, 17 μM): 2.2 fold

SMILES: COC(=O)Nc1nc2cc(C(=O)c3ccc(F)cc3)ccc2[nH]1 [flubendazole]
- Fold (BLI enhancement), previously unknown compounds (human, 40 min, 17 μM): 6.3 fold
- Fold (BLI enhancement, S/B ratio over control) (human, 40 min, 17 μM): 6.3 fold

SMILES: Cl.Cl.OCCN1CCN(CCCN2c3ccccc3Sc3ccc(C(F)(F)F)cc32)CC1 [flufenazine hydrochloride]
- Fold (BLI enhancement, S/B ratio over control): 4.3 fold

SMILES: Fc1ccc(C(c2ccc(F)cc2)N2CCN(C/C=C/c3ccccc3)CC2)cc1 [flunarizine hydrochloride]
- Fold (BLI enhancement, S/B ratio over control) (human, 40 min, 17 μM): 2.9 fold

SMILES: FC(F)(F)c1ccc2c(c1)N(CCCN1CCN(CCCl)CC1)c1ccccc1S2 [fluphenazine N-mustard]
- Fold (BLI enhancement, S/B ratio over control): 3.6 fold

SMILES: OCCN1CCN(CCCN2c3ccccc3Sc3ccc(C(F)(F)F)cc32)CC1 [fluphenazine]
- Fold (BLI enhancement, S/B ratio over control) (human, 40 min, 17 μM): 2.0 fold

SMILES: COc1ccc(CCN(C)CCCC(C#N)(c2cc(OC)c(OC)c(OC)c2)C(C)C)cc1OC (stereo not drawn) [gallopamil]
- Fold (BLI enhancement, S/B ratio over control) [1]: 2.4 fold

SMILES: CC(C)=CCC[C@]1(C)C=Cc2c(O)c3c(c(CC=C(C)C)c2O1)O[C@]12C(=C[C@@H]4C[C@H]1C(C)(C)O[C@@]2(C/C=C(/C)C(=O)O)C4=O)C3=O [gambogic acid]
- Fold (BLI enhancement), previously unknown compounds (human, 40 min, 17 μM): 6.0 fold
- Fold (BLI enhancement, S/B ratio over control) (human, 40 min, 17 μM): 6.0 fold
